Laboratory results reported in patent US12364702B2, “Highly active sting protein agonist compound” (ADLAI NORTYE BIOPHARMA CO., LTD., priority 2018, dated 2025).
Read-outs that look alike come from different tables or passages of the source.

Columns and labels:
Type in all cases: cell-based
[1] = molecular target: T1, STING WT variant (Homo sapiens, UniProt Q86WV6); experiment: SEAP reporter assay in HEK-Blue ISG KO-STING cells transfected with STING WT variant (Method 1); conditions: 24 h, SEAP signal vs 0.5% DMSO
T1 construct: host or cells: HEK-Blue ISG KO-STING cells (Invivogen, hkb-kostg)
Excerpt: (§1) Activation of STING can be determined using a SEAP reporter assay in HEK-Blue™ ISG KO-STING cells (Invivogen, cat #hkb-kostg) transfected with plasmids expressing STING variants (WT & HAQ) (referred to WO2017/175147A1). STING variants (WT & HAQ) vector were constructed based on STING-232H vector (Origene, RC208418). GFP vector (VT2069) was bought from Youbio. The detailed protocol as follows: HEK-Blue™ ISG KO-STING cells were harvest and seeding into 96 well plate, the final cell number was 0.8×10^5 cells/well. Transfections were prepared using Lipofectamine 2000 (Invitrogen, Cat #11668-027) following the manufacturer's instructions (Lipo2000/DNA=1/10), 20 ul of transfection suspension containing 1 ng STING vector was added to cell culture plate and incubated at 37° C., 5% CO2 for 24 hours. After 24 hours' incubation, compounds were added at proper concentration, and the final DMSO concentration was 0.5%. After 24 h incubation, the supernatant was collected to detect SEAP signal using Great EscAPe SEAP chemiluminescence KIT (Clontech, cat #631738) and cells were collected to detect cell viability using CellTiter-Glo Luminescent Cell Viability Assay (Promega, cat #G7573) following the manufacturer's instructions. The data were described by the ratio of the stimulating signal of compounds to 0.5% DMSO.

[2] = molecular target: STING (Homo sapiens, UniProt Q86WV6); experiment: IFN-β secretion from THP1 by STING activation (hIFNβ ELISA)
Procedure: In this assay, activation of STING by compounds was evaluated by detecting their ability to stimulate the secretion of IFN-β (interferon-beta) from THP1. THP1 was purchased from National Collection of Authenticated Cell Cultures (Cat #TCHu 57). The top dose of compounds was setted according to their solubility. First, Compounds were 3 times diluted with medium, 8-dose points in total. The final DMSO concentration was 0.2%. THP1 during the logarithmic phase was resuspended to 2×10^6 cells/ml in assay medium. The THP1-cell suspension was dispensed into a 96-well U bottom plate containing 50 ul of compound diluted in medium. After 24 h incubation at 37° C., 5% CO2, the supernatant was collected. The concentration of IFN-β in the supernatant was measured using a human IFNβ ELISA KIT (R&D, DY814-05). The data was fitted with GraphPad Prism or XLfit to calculate EC50 values.

[3] = molecular target: T2, STING HAQ variant (Homo sapiens, UniProt Q86WV6, G230A/R293Q/R71H); experiment: SEAP reporter assay in HEK-Blue ISG KO-STING cells transfected with STING HAQ variant (Method 1); conditions: 24 h, SEAP signal vs 0.5% DMSO
T2 construct: host or cells: HEK-Blue ISG KO-STING cells (Invivogen, hkb-kostg)
Excerpt: as §1

[4] = 1 ng STING vector, compound 2.5 uM
[5] = THP1 cells; 24 h incubation; IFN-β in supernatant; top dose set according to solubility; read-out: hIFNβ ELISA (EC50)
[6] = 1 ng STING vector, compound 5 uM

T2 sequence (Q86WV6 whole entry R71H/G230A/R293Q): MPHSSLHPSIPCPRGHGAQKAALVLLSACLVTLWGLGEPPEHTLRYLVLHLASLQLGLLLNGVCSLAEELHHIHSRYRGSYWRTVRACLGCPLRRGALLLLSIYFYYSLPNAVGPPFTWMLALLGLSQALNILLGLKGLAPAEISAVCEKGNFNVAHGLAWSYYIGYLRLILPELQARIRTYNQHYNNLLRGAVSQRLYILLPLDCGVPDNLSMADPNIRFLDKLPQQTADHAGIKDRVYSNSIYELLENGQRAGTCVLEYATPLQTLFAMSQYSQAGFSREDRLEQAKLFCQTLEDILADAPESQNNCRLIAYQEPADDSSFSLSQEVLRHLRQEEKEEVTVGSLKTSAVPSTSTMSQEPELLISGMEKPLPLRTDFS
STING, sequence (Q86WV6 whole entry): as the sequence (Q86WV6 whole entry R71H/G230A/R293Q) above, with H71R, A230G, Q293R counted along it

Fold change related to DMSO control WT [1, 4]	EC50 [2, 5]	Fold change related to DMSO control HAQ [3, 6]	Fold change related to DMSO control WT ([1]; compound 22.1 uM)	Fold change related to DMSO control HAQ ([3]; compound 22.1 uM)	Structure (SMILES)	EC50 ([2]; read-out: hIFNβ ELISA (EC50); THP1 cells; 24 h incubation; IFN-β in supernatant; top dose set according to solubility)
2.22	3.9 µM	45.86			CCn1nc(C)cc1C(=O)Nc1nc2cc(C(N)=O)cc(OCCCN(C)C(C)=O)c2n1CCC[C@H]1COc2cc(C(N)=O)cc3nc(NC(=O)c4cc(C)nn4CC)n1c23 [Example 27, (S)-3-(3-(5-carbamoyl-2-(1-ethyl-3-methyl-1H-pyrazole-5-carboxamido)-7-(3-(N-methylacetamido)propoxy)-1H-benzo[d]imidazol-1-yl)propyl)-2-(1-ethyl-3-methyl-1H-pyrazole-5-carboxamido)-3,4-dihydro-5-oxa-1,2a-diazaacenaphthylene-7-carboxamide]	
	3.7 µM		1.41	22.85	CCn1nc(C)cc1C(=O)Nc1nc2cc(C(N)=O)cc(OC)c2n1CCC[C@H]1COc2cc(C(N)=O)cc3nc(NC(=O)c4cc(C)nn4CC)n1c23 [Example 5, (S)-3-(3-(5-carbamoyl-2-(1-ethyl-3-methyl-1H-pyrazole-5-carboxamido)-7-methoxy-1H-benzo[d]imidazol-1-yl)propyl)-2-(1-ethyl-3-methyl-1H-pyrazole-5-carboxamido)-3,4-dihydro-5-oxa-1,2a-diazaacenaphthylene-7-carboxamide]	
2.64	18.2 µM	40.66			CCn1nc(C)cc1C(=O)Nc1nc2cc(C(N)=O)cc(OCCCN(C)C)c2n1CCC[C@H]1COc2cc(C(N)=O)cc3nc(NC(=O)c4cc(C)nn4CC)n1c23 [Example 18, (S)-3-(3-(5-carbamoyl-7-(3-(dimethylamino)propoxy)-2-(1-ethyl-3-methyl-1H-pyrazole-5-carboxamido)-1H-benzo[d]imidazol-1-yl)propyl)-2-(1-ethyl-3-methyl-1H-pyrazole-5-carboxamido)-3,4-dihydro-5-oxa-1,2a-diazaacenaphthylene-7-carboxamide]	
2.38	1.4 µM	40.44			CCn1nc(C)cc1C(=O)Nc1nc2cc(C(N)=O)cc(OCCCNC(=O)CN3CCOCC3)c2n1CCC[C@H]1COc2cc(C(N)=O)cc3nc(NC(=O)c4cc(C)nn4CC)n1c23 [Example 21, (S)-3-(3-(5-carbamoyl-2-(1-ethyl-3-methyl-1H-pyrazole-5-carboxamido)-7-(3-(2-morpholinoacetamido)propoxy)-1H-benzo[d]imidazol-1-yl)propyl)-2-(1-ethyl-3-methyl-1H-pyrazole-5-carboxamido)-3,4-dihydro-5-oxa-1,2a-diazaacenaphthylene-7-carboxamide]	
2.63	11.4 µM	41.58			CCn1nc(C)cc1C(=O)Nc1nc2cc(C(N)=O)cc(OCCCNC(=O)CN(C)C)c2n1CCC[C@H]1COc2cc(C(N)=O)cc3nc(NC(=O)c4cc(C)nn4CC)n1c23 [Example 20, (S)-3-(3-(5-carbamoyl-7-(3-(2-(dimethylamino)acetamido)propoxy)-2-(1-ethyl-3-methyl-1H-pyrazole-5-carboxamido)-1H-benzo[d]imidazol-1-yl)propyl)-2-(1-ethyl-3-methyl-1H-pyrazole-5-carboxamido)-3,4-dihydro-5-oxa-1,2a-diazaacenaphthylene-7-carboxamide]	
1.89	> 9.1 µM	26.28			CCn1nc(C)cc1C(=O)Nc1nc2cc(C(N)=O)cc3c2n1[C@@H](CCCn1c(NC(=O)c2cc(C)nn2CCF)nc2cc(C(N)=O)cc(OCCCOC)c21)CO3 [Example 12, (S)-3-(3-(5-carbamoyl-2-(1-(2-fluoroethyl)-3-methyl-1H-pyrazole-5-carboxamido)-7-(3-methoxypropoxy)-1H-benzo[d]imidazol-1-yl)propyl)-2-(1-ethyl-3-methyl-1H-pyrazole-5-carboxamido)-3,4-dihydro-5-oxa-1,2a-diazaacenaphthylene-7-carboxamide]	
1.99	6.7 µM	27.10			CCn1nc(C)cc1C(=O)Nc1nc2cc(C(N)=O)cc(OCCCN(C)C(=O)CN3CCOCC3)c2n1CCC[C@H]1COc2cc(C(N)=O)cc3nc(NC(=O)c4cc(C)nn4CC)n1c23 [Example 29, (S)-3-(3-(5-carbamoyl-2-(1-ethyl-3-methyl-1H-pyrazole-5-carboxamido)-7-(3-(N-methyl-2-morpholinoacetamido)propoxy)-1H-benzo[d]imidazol-1-yl)propyl)-2-(1-ethyl-3-methyl-1H-pyrazole-5-carboxamido)-3,4-dihydro-5-oxa-1,2a-diazaacenaphthylene-7-carboxamide]	
2.40	3.9 µM	47.36			CCn1nc(C)cc1C(=O)Nc1nc2cc(C(N)=O)cc(OCCCNC(C)=O)c2n1CCC[C@H]1COc2cc(C(N)=O)cc3nc(NC(=O)c4cc(C)nn4CC)n1c23 [Example 22, (S)-3-(3-(7-(3-acetamidopropoxy)-5-carbamoyl-2-(1-ethyl-3-methyl-1H-pyrazole-5-carboxamido)-1H-benzo[d]imidazol-1-yl)propyl)-2-(1-ethyl-3-methyl-1H-pyrazole-5-carboxamido)-k, 3,4-dihydro-5-oxa-1,2a-diazaacenaphthylene-7-carboxamide]	
1.51	9.1 µM	6.51			CCn1nc(C)cc1C(=O)Nc1nc2cc(C(N)=O)cc(OCCCNC(=O)CN3CCNCC3)c2n1CCC[C@H]1COc2cc(C(N)=O)cc3nc(NC(=O)c4cc(C)nn4CC)n1c23 [Example 34, (S)-3-(3-(6-carbamoyl-2-(1-ethyl-3-methyl-1H-pyrazole-5-carboxamido)-4-(3-(2-(piperazin-1-yl)acetamido)propoxy)-1H-benzo[d]imidazol-1-yl)propyl)-2-(1-ethyl-3-methyl-1H-pyrazole-5-carboxamido)-3,4-dihydro-5-oxa-1,2a-diazaacenaphthylene-7-carboxamide]	

Structure (SMILES)	Fold change related to DMSO control WT [1, 4]	EC50 [2, 5]	Fold change related to DMSO control HAQ [3, 6]	Fold change related to DMSO control WT ([1]; compound 22.1 uM)	Fold change related to DMSO control HAQ ([3]; compound 22.1 uM)	EC50 ([2]; read-out: hIFNβ ELISA (EC50); THP1 cells; 24 h incubation; IFN-β in supernatant; top dose set according to solubility)
CCn1nc(C)cc1C(=O)Nc1nc2cc(C(N)=O)cc(OCCCCNC)c2n1CCC[C@H]1COc2cc(C(N)=O)cc3nc(NC(=O)c4cc(C)nn4CC)n1c23 [Example 23, (S)-3-(3-(5-carbamoyl-2-(1-ethyl-3-methyl-1H-pyrazole-5-carboxamido)-7-(4-(methylamino)butoxy)-1H-benzo[d]imidazol-1-yl)propyl)-2-(1-ethyl-3-methyl-1H-pyrazole-5-carboxamido)-3,4-dihydro-5-oxa-1,2a-diazaacenaphthylene-7-carboxamide]	2.82	1.1 µM	38.85			
CCn1nc(C)cc1C(=O)Nc1nc2cc(C(N)=O)cc(OCCCNC)c2n1CCC[C@H]1COc2cc(C(N)=O)cc3nc(NC(=O)c4cc(C)nn4CC)n1c23.Cl [Example 17, (S)-3-(3-(5-carbamoyl-2-(1-ethyl-3-methyl-1H-pyrazole-5-carboxamido)-7-(3-(methylamino)propoxy)-1H-benzo[d]imidazol-1-yl)propyl)-2-(1-ethyl-3-methyl-1H-pyrazole-5-carboxamido)-3,4-dihydro-5-oxa-1,2a-diazaacenaphthylene-7-carboxamide Hydrochloride]	2.35		33.85			9.8 µM
